Laboratory results taken from patent US20240165042A1, “COMPOSITION FOR CONTROLLED RELEASE OF PHYSIOLOGICALLY ACTIVE SUBSTANCES AND PROCESS FOR ITS PREPARATION” (BALCHEM ITALIA S.R.L., priority 2017, published 2024).

Assays:
Assay type in all cases: in vitro ADME
[1] = Total bioavailability in vitro (combination of ruminal by-pass and post-ruminal digestibility)
Protocol: (§1) The experimental conditions of use were 39° C., 15 rpm, 8 hours presence in the solution with “ruminal” pH of about 6.8. • Daisy^II ANKOM: commercially available laboratory artificial rumen, for determining the degree of ruminal bypass. The experimental conditions of use were 39° C., 8 hours presence in ruminal conditions, buffer solution at “ruminal” pH with insertion of “ruminal inoculum” and re-creation of ruminal anaerobiosis according to a university procedure known to those skilled in the art. The pH normally tested in the quality control phase is 6.8. Pharmaceutical dissolver for determining the degree of post-ruminal digestibility. The experimental conditions of use followed the procedure known to experts in the field as “Boisen Test” and, in particular, they were: • 39° C., 30 rpm, 2 h, buffer solution with “gastric” pH (2.0)+pepsin inoculum. • 39 °C, 30 rpm, 4 h, buffer solution with “intestinal” pH (6.8)+pancreatine inoculum. • 39° C., 30 rpm, 18 h, buffer solution with “intestinal” pH (6.8)+lipase and bile extract inoculum.
(§2) Then the microgranules were subjected to an evaluation of the degree of ruminal by-pass, post-ruminal digestibility and total bioavailability using the Boisen method.

[2] = Degree of ruminal by-pass in vitro (pharmaceutical dissolver / Daisy II ANKOM artificial rumen, 39° C., 8 hours, ruminal pH about 6.8)
Protocol: In the context of the present invention, the term “ruminal by-pass” indicates the percentage amount by weight of substance reaching the animal post-ruminal area, namely the stomach and the intestine, with respect to the total amount by weight of the orally administered substance.
The experimental conditions of use were 39° C., 15 rpm, 8 hours presence in the solution with “ruminal” pH of about 6.8. • Daisy^II ANKOM: commercially available laboratory artificial rumen, for determining the degree of ruminal bypass. The experimental conditions of use were 39° C., 8 hours presence in ruminal conditions, buffer solution at “ruminal” pH with insertion of “ruminal inoculum” and re-creation of ruminal anaerobiosis according to a university procedure known to those skilled in the art. […] Pharmaceutical dissolver for determining the degree of post-ruminal digestibility. The experimental conditions of use followed the procedure known to experts in the field as “Boisen Test” and, in particular, they were: • 39° C., 30 rpm, 2 h, buffer solution with “gastric” pH (2.0)+pepsin inoculum. • 39 °C, 30 rpm, 4 h, buffer solution with “intestinal” pH (6.8)+pancreatine inoculum. • 39° C., 30 rpm, 18 h, buffer solution with “intestinal” pH (6.8)+lipase and bile extract inoculum.
as §2

[3] = Post-ruminal digestibility in vitro (pharmaceutical dissolver, Boisen Test: gastric pH 2.0 + pepsin, intestinal pH 6.8 + pancreatine, then lipase and bile extract)
Protocol: as §1, §2

[4] = theoretical administration of 100 g of choline chloride
[5] = theoretical administration of 200 g of product

C[N+](C)(C)CCO.[Cl-] [Product A, choline chloride]
Bioavailable Choline Chloride [1, 4]: 0 g | Bioavailable Choline Chloride [1, 5]: 0 g | Bypassed Choline Chloride [2, 4]: 0 g | Choline Chloride lost in the rumen in 8 h [2, 4]: 101 g | Bypassed Choline Chloride [2, 5]: 0 g | Choline Chloride lost in the rumen in 8 h [2, 5]: 198 g | Choline Chloride in faeces [3, 4]: 0 g | Choline Chloride in faeces [3, 5]: 0 g
